Here are results for one compound from patent publication US11174232B2, “Substituted heterocyclyl derivatives as CDK inhibitors” (Aurigene Discovery Technologies Limited, priority 2015, dated 2021).

This assay addresses CDK7/CycH/MNAT1 (Homo sapiens (Human), UniProt P50613). The assay is described as follows: Biochemical Assay for CDK7 (TR-FRET kinase assay). The settings on record: 60 min pre-incubation with kinase, 1 mM ATP. Put shortly: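 TR-FRET with 5 nM CDK7/CycH/MNAT1, compound pre-incubated 60 min at room temperature, then 100 nM ULight-MBP and 1 mM ATP for 60 min; stopped with EDTA, Eu anti-phospho-MBP read at 665/615 nm. 1% DMSO; IC50 from sigmoidal fit. Time-dependence tested with 20, 60, 180 min pre-incubation.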
(TR-FRET usually uses a lanthanide donor and a delayed reading to cut background.)

Usually IC50 stands for the concentration needed to halve the response being measured. A high value points to weaker potency in that assay.

Chain of CDK7/CycH/MNAT1 (P50613 whole entry): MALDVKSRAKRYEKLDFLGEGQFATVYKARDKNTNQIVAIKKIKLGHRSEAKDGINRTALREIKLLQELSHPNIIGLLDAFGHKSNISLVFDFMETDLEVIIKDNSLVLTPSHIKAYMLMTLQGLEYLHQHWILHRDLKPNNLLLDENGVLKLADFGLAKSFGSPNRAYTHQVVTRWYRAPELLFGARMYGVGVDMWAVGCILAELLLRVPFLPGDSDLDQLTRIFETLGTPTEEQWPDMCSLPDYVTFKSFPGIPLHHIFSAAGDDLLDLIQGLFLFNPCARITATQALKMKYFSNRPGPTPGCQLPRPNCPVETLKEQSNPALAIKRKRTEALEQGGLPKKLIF
Chain of CDK7/CycH/MNAT1 (P51946 whole entry partner): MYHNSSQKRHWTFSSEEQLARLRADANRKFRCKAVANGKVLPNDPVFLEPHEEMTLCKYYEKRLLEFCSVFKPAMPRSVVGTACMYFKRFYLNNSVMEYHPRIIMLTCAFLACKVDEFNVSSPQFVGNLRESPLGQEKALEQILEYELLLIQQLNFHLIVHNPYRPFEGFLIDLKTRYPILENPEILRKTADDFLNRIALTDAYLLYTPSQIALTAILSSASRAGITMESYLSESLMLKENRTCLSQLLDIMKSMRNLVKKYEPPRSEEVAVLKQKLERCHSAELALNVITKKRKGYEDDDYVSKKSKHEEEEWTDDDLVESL
Chain of CDK7/CycH/MNAT1 (P51948 whole entry partner): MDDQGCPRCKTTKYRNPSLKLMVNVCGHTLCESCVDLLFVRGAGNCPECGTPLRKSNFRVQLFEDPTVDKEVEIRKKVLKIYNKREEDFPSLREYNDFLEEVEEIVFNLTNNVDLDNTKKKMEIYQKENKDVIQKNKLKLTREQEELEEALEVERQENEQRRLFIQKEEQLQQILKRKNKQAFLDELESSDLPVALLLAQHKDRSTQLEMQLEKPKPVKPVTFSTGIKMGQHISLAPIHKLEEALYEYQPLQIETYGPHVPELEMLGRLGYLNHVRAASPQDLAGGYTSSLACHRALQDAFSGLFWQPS

In turn, `CC(C(=O)Nc1cc(C2CC2)[nH]n1)c1cccc(-c2ccc(NC(=O)/C=C/CN3CCCC3)nc2)c1` (single isomer, unassigned) [Compound 54, (E)-N-(5-(3-(1-((5-cyclopropyl-1H-pyrazol-3-yl)amino)-1-oxopropan-2-yl)-phenyl)pyridin-2-yl)-4-(pyrrolidin-1-yl)but-2-enamide] gave a half-maximal inhibitory concentration (IC50) of less than 25 nM. The “% inhibition @ 10 μM” value (10 μM compound) is 78%.
